Measured values taken from paper PMC7307922 (Journal of Medicinal Chemistry, 2020).
Values after ≈ are worked out from the molar mass of the structure shown.

Assays:
hFFA3 [1] = target: T1, hFFA3 (Homo sapiens, UniProt O14843); assay: biochemical; details: for GTPγS pEC50: hFFA3, mean of ≥3 independent experiments ± standard error; for Emax: read-out: GTPγS Emax
T1 sequence (O14843 1-346): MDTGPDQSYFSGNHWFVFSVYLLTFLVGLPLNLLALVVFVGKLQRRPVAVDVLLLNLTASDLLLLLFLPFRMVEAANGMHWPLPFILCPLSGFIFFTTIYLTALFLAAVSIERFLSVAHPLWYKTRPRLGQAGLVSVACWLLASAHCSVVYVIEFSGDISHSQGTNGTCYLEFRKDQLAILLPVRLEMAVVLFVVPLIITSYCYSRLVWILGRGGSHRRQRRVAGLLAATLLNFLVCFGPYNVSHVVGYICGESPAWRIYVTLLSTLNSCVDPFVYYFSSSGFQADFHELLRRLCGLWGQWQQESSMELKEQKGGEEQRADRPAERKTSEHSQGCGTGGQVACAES
Description: (§1) The ligands were initially screened in a human FFA3-dependent [^35S]GTPγS binding assay as this assay reflects receptor-mediated activation of Gi/o proteins and is known to generally correlate well with ligand affinity.[30] Analogues of particular interest were tested further in a cAMP inhibition assay as this is an important downstream effect of Gi-activation. […] It is furthermore performed in whole cells, is more downstream, includes G protein signal amplification, and therefore better reflects a more natural ligand–receptor response.
Membranes were isolated from Flp-In T-REx HEK293 cells treated with 100 ng/mL doxycycline to induce receptor expression. Cells were washed with ice-cold phosphate-buffered saline and removed from dishes by scraping before being centrifuged for 5 min at 4 °C, 3000 rpm. Pellets were resuspended in TE buffer (75 mM Tris–HCl, 5 mM EDTA; pH 7.5) with the addition of a protease inhibitor mixture (Roche Applied Science, West Sussex, UK). This was then homogenized with a 5 mL hand-held homogenizer and subsequently centrifuged at 1500 rpm for 5 min at 4 °C, from which the supernatant was collected and further centrifuged at 50 000 rpm for 30 min at 4 °C. The resulting pellet was resuspended in TE buffer, and the protein content was measured using a BCA protein assay kit (Pierce, Fisher Scientific, Loughborough, UK).
Reactions were initiated with the addition of [^35S]GTPγS at 50 nCi per tube; reactions were terminated after 1 h of incubation at 25 °C by rapid filtration through GF/C glass filters using a 24-well Brandel cell harvester (Alpha Biotech, Glasgow, UK). Unbound radioligand was removed from filters by washing three times with ice-cold wash buffer (50 mM Tris–HCl, pH 7.4, and 10 mM MgCl2), and [^35S]GTPγS binding was determined by liquid scintillation spectrometry.

hFFA3 [2] = target: T1, hFFA3; assay: cell-based; details: for Emax: HEK293, read-out: cAMP Emax; for increased potency in cAMP assay versus GTPγS assay / lower potency in cAMP assay versus GTPγS assay: cAMP vs GTPγS data; for cAMP pEC50: hFFA3, compound alone, mean of ≥3 independent experiments ± standard error; for PAM pEC50: cAMP assay in the presence of 1 μM propionate
Description: as §1
HEK293 Flp-In T-Rex cells stably transfected with FFA3-eYFP receptors were incubated overnight with doxycycline to induce expression, then harvested, and cryopreserved. On the day of each experiment, cells were thawed and resuspended in stimulation buffer. Assays were carried out using a 384-well plate format with 3000 cells/well using the CisBio cAMP GS dynamic kit as per manufacturer’s protocol. Compounds were tested for the ability to inhibit 0.3 μM forskolin-induced cAMP production after co-incubation for 1 h. Reactions were measured using a PHERAstar FS plate reader (BMGLabtech, Aylesbury, UK).

[3] = Kinetic aqueous solubility in PBS pH 7.4; format: physicochemical; details: phosphate buffered saline, pH 7.4; read-out: Aq. solub.
Description: (§2) Solubility and log D7.4 measurements were performed in accordance to the previously published procedures.[35]

log D7.4 measurement = format: physicochemical; details: pH 7.4; read-out: logD7.4
Description: as §2

CC1=C(C(=O)Nc2ccccc2C)C(c2ccccc2)C2=C(CCCC2=O)N1 (stereo not drawn) [Compound 3, 2-Methyl-5-oxo-4-phenyl-N-(o-tolyl)-1,4,5,6,7,8-hexahydroquinoline-3-carboxamide]
GTPγS pEC50 (hFFA3 [1]): 4.75 ± 0.11 | Emax (hFFA3 [1]): 103% | Emax (hFFA3 [2]): 98% | increased potency in cAMP assay versus GTPγS assay (hFFA3 [2]): 14 fold | cAMP pEC50 (hFFA3 [2]): 5.91 ± 0.04

CC1=C(C(=O)Nc2c(F)cccc2F)C(CC(C)C)C2=C(CCCC2=O)N1 (stereo not drawn) [Compound 21, N-(2,6-Difluorophenyl)-4-isobutyl-2-methyl-5-oxo-1,4,5,6,7,8-hexahydroquinoline-3-carboxamide]
GTPγS pEC50 (hFFA3 [1]): 4.67 ± 0.22 | Emax (hFFA3 [1]): 89% | Emax (hFFA3 [2]): 104% | cAMP pEC50 (hFFA3 [2]): 4.98 ± 0.08

CC1=C(C(=O)Nc2cc(Cl)ccc2Cl)C(c2cncs2)C2=C(CCCC2=O)N1 (stereo not drawn) [Compound 48, N-(2,5-Dichlorophenyl)-2-methyl-5-oxo-4-(thiazol-5-yl)-1,4,5,6,7,8-hexahydroquinoline-3-carboxamide]
Emax (hFFA3 [2]): 97% | cAMP pEC50 (hFFA3 [2]): 5.75 ± 0.03 | solubility [3]: 1 µM (≈ 0.434 µg/mL) | logD at 24 h (log D7.4 measurement): 3.23

CC1=C(C(=O)Nc2ccccc2Cl)C(CC(C)C)C2=C(CCCC2=O)N1 (stereo not drawn) [Compound 20, N-(2-Chlorophenyl)-4-isobutyl-2-methyl-5-oxo-1,4,5,6,7,8-hexahydroquinoline-3-carboxamide]
GTPγS pEC50 (hFFA3 [1]): 5.41 ± 0.13 | Emax (hFFA3 [1]): 105% | Emax (hFFA3 [2]): 94% | cAMP pEC50 (hFFA3 [2]): 6.15 ± 0.06

CC1=C(C(=O)Nc2ccccc2I)C(CC(C)C)C2=C(CCCC2=O)N1 (stereo not drawn) [Compound 19, N-(2-Iodophenyl)-4-isobutyl-2-methyl-5-oxo-1,4,5,6,7,8-hexahydroquinoline-3-carboxamide]
GTPγS pEC50 (hFFA3 [1]): 5.41 ± 0.15 | Emax (hFFA3 [1]): 129% | EC50 (hFFA3 [2]): 2.69 µM | Emax (hFFA3 [2]): 89%

CCCC1C(C(=O)Nc2cc(C)ccc2Cl)=C(C)NC2=C1C(=O)CCC2 (stereo not drawn) [Compound 60, N-(2-Chloro-5-methylphenyl)-2-methyl-5-oxo-4-propyl-1,4,5,6,7,8-hexahydroquinoline-3-carboxamide]
Emax (hFFA3 [2]): 103% | cAMP pEC50 (hFFA3 [2]): 6.19 ± 0.10 | solubility [3]: 145 µM (≈ 54.1 µg/mL) | logD at 24 h (log D7.4 measurement): 3.57

CC1=C(C(=O)Nc2ccccc2C)C(c2ccc(Br)cc2)C2=C(CCCC2=O)N1 (stereo not drawn) [Compound 7, 4-(4-Bromophenyl)-2-methyl-5-oxo-N-(o-tolyl)-1,4,5,6,7,8-hexahydroquinoline-3-carboxamide]
GTPγS pEC50 (hFFA3 [1]): 5.43 ± 0.09 | Emax (hFFA3 [1]): 85% | Emax (hFFA3 [2]): 103% | cAMP pEC50 (hFFA3 [2]): 5.79 ± 0.03

CC1=C(C(=O)Nc2cccc(C)c2)C(c2ccco2)C2=C(CCCC2=O)N1 (stereo not drawn) [Compound 13, 4-(Furan-2-yl)-2-methyl-5-oxo-N-(m-tolyl)-1,4,5,6,7,8-hexahydroquinoline-3-carboxamide]
GTPγS pEC50 (hFFA3 [1]): 5.34 ± 0.15 | Emax (hFFA3 [1]): 78% | Emax (hFFA3 [2]): 100% | cAMP pEC50 (hFFA3 [2]): 5.80 ± 0.04

CC1=C(C(=O)Nc2ccccc2C)C(c2ccc(C)cc2)C2=C(CCCC2=O)N1 (stereo not drawn) [Compound 10, 2-Methyl-5-oxo-N-(o-tolyl)-4-(p-tolyl)-1,4,5,6,7,8-hexahydroquinoline-3-carboxamide]
GTPγS pEC50 (hFFA3 [1]): 4.52 ± 0.11 | Emax (hFFA3 [1]): 88% | Emax (hFFA3 [2]): 97% | cAMP pEC50 (hFFA3 [2]): 5.44 ± 0.04

CC1=C(C(=O)Nc2ccccc2C)C(c2cccc(C(F)(F)F)c2)C2=C(CCCC2=O)N1 (stereo not drawn) [Compound 8, 2-Methyl-5-oxo-N-(o-tolyl)-4-(3-(trifluoromethyl)phenyl)-1,4,5,6,7,8-hexahydroquinoline-3-carboxamide]
GTPγS pEC50 (hFFA3 [1]): 4.81 ± 0.13 | Emax (hFFA3 [1]): 118% | Emax (hFFA3 [2]): 98% | cAMP pEC50 (hFFA3 [2]): 5.55 ± 0.05

CC1=C(C(=O)Nc2ccccc2C)C(c2ccc(C(F)(F)F)cc2)C2=C(CCCC2=O)N1 (stereo not drawn) [Compound 9, 2-Methyl-5-oxo-N-(o-tolyl)-4-(4-(trifluoromethyl)phenyl)-1,4,5,6,7,8-hexahydroquinoline-3-carboxamide]
GTPγS pEC50 (hFFA3 [1]): 5.12 ± 0.13 | Emax (hFFA3 [1]): 116% | Emax (hFFA3 [2]): 101% | cAMP pEC50 (hFFA3 [2]): 5.31 ± 0.06

CCc1ccc(C2C(C(=O)Nc3ccccc3C)=C(C)NC3=C2C(=O)CCC3)cc1 (stereo not drawn) [Compound 11, 4-(4-Ethylphenyl)-2-methyl-5-oxo-N-(o-tolyl)-1,4,5,6,7,8-hexahydroquinoline-3-carboxamide]
GTPγS pEC50 (hFFA3 [1]): 4.08 ± 0.26 | Emax (hFFA3 [1]): 143% | Emax (hFFA3 [2]): 96% | cAMP pEC50 (hFFA3 [2]): 5.17 ± 0.08

CC1=C(C(=O)Nc2ccccc2C)C(CC(C)C)C2=C(CCCC2=O)N1 (stereo not drawn) [Compound 17, 4-Isobutyl-2-methyl-5-oxo-N-(o-tolyl)-1,4,5,6,7,8-hexahydroquinoline-3-carboxamide]
GTPγS pEC50 (hFFA3 [1]): 5.68 ± 0.13 | Emax (hFFA3 [1]): 109% | Emax (hFFA3 [2]): 109% | PAM pEC50 (hFFA3 [2]): 6.28 ± 0.14 | lower potency in cAMP assay versus GTPγS assay (hFFA3 [2]): 5 fold | cAMP pEC50 (hFFA3 [2]): 5.00 ± 0.06

CC1=C(C(=O)Nc2ccccc2C)C(c2cccs2)C2=C(CCCC2=O)N1 (stereo not drawn) [Compound 4, 2-Methyl-5-oxo-4-(thiophen-2-yl)-N-(o-tolyl)-1,4,5,6,7,8-hexahydroquinoline-3-carboxamide]
GTPγS pEC50 (hFFA3 [1]): 5.52 ± 0.18 | Emax (hFFA3 [1]): 111% | Emax (hFFA3 [2]): 102% | PAM pEC50 (hFFA3 [2]): 5.92 ± 0.04 | cAMP pEC50 (hFFA3 [2]): 5.79 ± 0.04

CC1=C(C(=O)Nc2ccc(C)cc2)C(c2ccco2)C2=C(CCCC2=O)N1 (stereo not drawn) [Compound 14, 4-(Furan-2-yl)-2-methyl-5-oxo-N-(p-tolyl)-1,4,5,6,7,8-hexahydroquinoline-3-carboxamide]
GTPγS pEC50 (hFFA3 [1]): 5.27 ± 0.12 | Emax (hFFA3 [1]): 88% | Emax (hFFA3 [2]): 100% | cAMP pEC50 (hFFA3 [2]): 6.16 ± 0.03

CC1=C(C(=O)Nc2ccccc2)C(c2ccco2)C2=C(CCCC2=O)N1 (stereo not drawn) [Compound 12]
GTPγS pEC50 (hFFA3 [1]): 5.11 ± 0.12 | Emax (hFFA3 [1]): 81% | drop in potency on replacement of o-tolyl (1) (hFFA3 [1]; relative to 1): > 3 fold | Emax (hFFA3 [2]): 97% | cAMP pEC50 (hFFA3 [2]): 5.45 ± 0.03

Cc1ccccc1NC(=O)c1c(C)nc2c(c1-c1ccco1)C(=O)CCC2 [Compound 24, 4-(Furan-2-yl)-2-methyl-5-oxo-N-(o-tolyl)-5,6,7,8-tetrahydroquinoline-3-carboxamide]
PAM pEC50 (GTPγS assay) (hFFA3 [1]; GTPγS assay, with propionate): nr^c,d | cAMP pEC50 (hFFA3 [2]): inactive and nr^c

COc1ccccc1NC(=O)C1=C(C)NC2=C(C(=O)CCC2)C1c1ccco1 (stereo not drawn) [Compound 15, 4-(Furan-2-yl)-N-(2-methoxyphenyl)-2-methyl-5-oxo-1,4,5,6,7,8-hexahydroquinoline-3-carboxamide]
GTPγS pEC50 (hFFA3 [1]): 4.71 ± 0.28 | Emax (hFFA3 [1]): 124% | Emax (hFFA3 [2]): 99% | increased potency in cAMP assay versus GTPγS assay (hFFA3 [2]): 50 fold | cAMP pEC50 (hFFA3 [2]): 6.43 ± 0.03

CC1=C(C(=O)Nc2ccccc2C)C(c2cccc(Br)c2)C2=C(CCCC2=O)N1 (stereo not drawn) [Compound 6, 4-(3-Bromophenyl)-2-methyl-5-oxo-N-(o-tolyl)-1,4,5,6,7,8-hexahydroquinoline-3-carboxamide]
GTPγS pEC50 (hFFA3 [1]): 5.49 ± 0.08 | Emax (hFFA3 [1]): 89% | Emax (hFFA3 [2]): 99% | cAMP pEC50 (hFFA3 [2]): 5.87 ± 0.06

CC1=C(C(=O)Nc2ccccc2C)C(c2ccoc2)C2=C(CCCC2=O)N1 (stereo not drawn) [Compound 2, reference compound]
GTPγS pEC50 (hFFA3 [1]): 5.24 ± 0.08 | Emax (hFFA3 [1]): 135% | Emax (hFFA3 [2]): 97% | increased potency in cAMP assay versus GTPγS assay (hFFA3 [2]): 10 fold | cAMP pEC50 (hFFA3 [2]): 6.27 ± 0.03

CC1=C(C(=O)Nc2cccc(C)c2C)C(CC(C)C)C2=C(CCCC2=O)N1 (stereo not drawn) [Compound 18, N-(2,3-Dimethylphenyl)-4-isobutyl-2-methyl-5-oxo-1,4,5,6,7,8-hexahydroquinoline-3-carboxamide]
GTPγS pEC50 (hFFA3 [1]): 5.26 ± 0.16 | Emax (hFFA3 [1]): 88% | Emax (hFFA3 [2]): 97% | lower potency in cAMP assay versus GTPγS assay (hFFA3 [2]): 2 fold | cAMP pEC50 (hFFA3 [2]): 4.98 ± 0.11
